{"source": "patent US7985556B2", "about": "“Method of screening apoptosis accelerating compound or anti-apoptotic compound and method of determining malignancy of neurodegenerative disease” (Hisamitsu Pharmaceutical Co., Inc., priority 2005, dated 2011)", "format_in_all_cases": "cell-based, human", "key": {"[1]": {"test_system": "NEDL1 gene expression in SH-SY5Y cells", "experiment": "Expression analysis by RT-PCR in cisplatin treated SH-SY5Y cells", "conditions": "cisplatin 20 μM, total RNA", "method": "The RT-PCR, Western blotting, immunoprecipitation, luciferase reporter assay and cell fractionation were performed according to the procedure described in Ando et al., J. Biol. Chem., 279: 25549-25561, 2004. Colony formation was performed according to the procedure described in Ozaki et al., Cancer Res., 59: 5902-5907, 1999.\nUnder the same conditions as in Example 1, SH-SY5Y cells were treated with cisplatin and cells were recovered at a prescribed time point, after which the total RNA was extracted and expression of the NEDL1, NEDL2, NEDD4, p21^WAF1 and p53 genes was analyzed by RT-PCR. GAPDH was used as an expression level control."}, "SH-SY5Y cells": {"test_system": "SH-SY5Y cells", "experiment": "Apoptosis of SH-SY5Y cells by cisplatin treatment (TUNEL staining)", "conditions": "cisplatin final concentration 20 μM", "method": "SH-SY5Y cells were cultured in the presence of cisplatin (final concentration: 20 μM). The cells were fixed with paraformaldehyde at prescribed time points after the start of culturing and subjected to TUNEL staining, and the TUNEL-positive cells were counted. […] The extent of cell death by cisplatin was detected."}, "[2]": {"test_system": "p21WAF1, phosphorylated p53, p53 and NEDL1 protein expression in SH-SY5Y cells", "experiment": "Expression analysis by Western blotting in cisplatin treated SH-SY5Y cells", "conditions": "cisplatin 20 μM, total protein", "method": "The RT-PCR, Western blotting, immunoprecipitation, luciferase reporter assay and cell fractionation were performed according to the procedure described in Ando et al., J. Biol. Chem., 279: 25549-25561, 2004. Colony formation was performed according to the procedure described in Ozaki et al., Cancer Res., 59: 5902-5907, 1999. Under the same conditions as in Example 1, SH-SY5Y cells were treated with cisplatin and cells were recovered at a prescribed time point, after which the total protein was extracted and the expression of p21^WAF1, phosphorylated p53 (p53 (Ser 15)), p53 and NEDL1 was analyzed by Western blotting. Actin was used as an expression level control."}}}
{"smiles": "N.N.[Cl][Pt][Cl]", "note": "[cisplatin]", "values": [{"measurement": "Expression of NEDL1 (RT-PCR)", "setting": "[1]", "result": "induced"}, {"measurement": "cell death (TUNEL-positive cells)", "setting": "SH-SY5Y cells", "result": "detected"}, {"measurement": "Expression of NEDL1 (Western blotting)", "setting": "[2]", "result": "induced"}, {"measurement": "Expression of p21WAF1 (Western blotting)", "setting": "[2]", "result": "induced"}, {"measurement": "Expression of p53 (Western blotting)", "setting": "[2]", "result": "induced"}, {"measurement": "Expression of phosphorylated p53 (p53 (Ser 15)) (Western blotting)", "setting": "[2]", "result": "induced"}]}
